Results reported in patent publication US4927842A, “2,3,4,9-tetrahydro-1H-carbazole acetic acid derivatives, composition and use as anti-inflammatories” (American Home Products Corporation, priority 1989, dated 1990).

System: rats
Assay: Preventative Adjuvant Edema (acute anti-inflammatory effect in rats)
Assay type: in vivo, Male Sprague Dawley rats
Conditions: 25 mg/kg, p.o.; given immediately before, 24 and 48 hours after Freund's complete adjuvant; hind paw edema volume day 0 to day 3
Method: This test is a primary screen for anti-inflammatory drugs.
Male Sprague Dawley rats (180-200 g) are used. The animals have free access to water but food is withdrawn 18 hours before testing.
Freund's complete adjuvant is prepared by suspending 5 mg killed and dried Mycobacterium butyricum (Difco) in 1 mL mineral oil. The test compounds are dissolved in distilled water or suspended in 0.5% Tween 80 in distilled water according to their solubility. For primary screening all drugs are administered by gastric lavage at the arbitrary dosage of 25 mg/kg, p.o. in a volume of 0.5 mL/100 g body weight to groups of 10 animals.
The method is essentially that described by Wax et al, J. Pharmacol. Exp. Ther., 192, 166-171 (1975). Groups of rats are injected intradermally in the left hand paw with 0.1 mL of Freund's complete adjuvant. The test compound or vehicle is administered immediately before the adjuvant, 24 hours and 48 hours after the adjuvant (day 0, 1 and 2). The injected hind paw volume is measured before the injection of adjuvant and 24 hours after the last drug administration (day 3) by means of a plethysmometer (Buxco Electronics Inc.). The difference between the hind paw volume on day 0 and day 3 represents the edema volume. Etodolac (25 mg/kg, p.o.) is included as a positive control.
The mean edema volume (expressed as mL±SEM) is calculated for each group and the percentage protection conferred by the drug is calculated: [formula] where c is the mean edema volume for the untreated controls and t is the mean edema volume for the drug treated group.

| Compound | % Inhibition [%] |
| --- | --- |
| CC[C@]1(CC(=O)O)CC[C@@H](CC=NOC)c2c1[nH]c1c(C)cccc21 (relative stereo) [Example 2, cis-1-Ethyl-2,3,4,9-tetrahydro-4-[2-(methoxyimino)ethyl]-8-methyl-1H-carbazole-1-acetic Acid] | 45 |
| CC[C@]1(CC(=O)O)CC[C@@H](CC(C)=O)c2c1[nH]c1c(C)cccc21 (relative stereo) [Example 3, cis-1-Ethyl-2,3,4,9-tetrahydro-8-methyl-4-(2-oxopropyl)-1H-carbazole-1-acetic Acid] | 52 |
| CC[C@]1(CC(=O)O)CC[C@@H](CC#N)c2c1[nH]c1c(C)cccc21 (relative stereo) [Example 4, cis-4-(Cyanomethyl)-1-ethyl-2,3,4,9-tetrahydro-8-methyl-1H-carbazole-1-acetic Acid] | 52 |
| cis-1-Ethyl-2,3,4,9-tetrahydro-4-[2-(hydroxyimino)ethyl]-8-methyl-1H-carbazole-1-acetic Acid [Example 1] | 59 |
